Results from article PMC10539800, “Small-molecule inhibitors of the PDZ domain of Dishevelled proteins interrupt Wnt signalling” (Magnetic resonance, 2021).
Entries after “also recorded” stand apart in the source; their conditions may differ.

Assays:
[1] = target: T1, Dvl-1 PDZ (Homo sapiens, UniProt O14640, C338S/V250I); settings: for T Δ S Dvl-1 PDZ / Δ G Dvl-1 PDZ / Δ H Dvl-1 PDZ: ITC
T1 sequence (O14640 245-338 V250I/C338S): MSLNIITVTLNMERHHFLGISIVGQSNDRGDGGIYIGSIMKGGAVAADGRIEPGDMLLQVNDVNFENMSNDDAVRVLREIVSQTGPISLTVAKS
Method: (§5) Isothermal titration calorimetry (ITC) experiments were performed using a VP-ITC system (MicroCal). Protein in 20 mM HEPES buffer and 50 mM NaCl (pH 7.4) was centrifuged and degassed before the experiment. A 200 µM ligand solution containing 2 % DMSO was injected 30 times in 10 µL aliquots at 120 s intervals with a stirring speed of 1000 rpm into a 1.4 mL sample cell containing the Dvl PDZ domain at a concentration of 20 µM at 25 ^∘ C. Control experiment was initially determined by titrating ligand into buffer at the same conditions. […] Thermodynamic properties and binding constants were determined by fitting the data with a non-linear least-squares routine using a single-site binding model with Origin (OriginLab) for ITC v.7.2 (MicroCal).

[2] = target: T2, Dvl-3 PDZ (Homo sapiens, UniProt Q92997); assay: Binding constant by isothermal titration calorimetry (ITC); settings: for T Δ S Dvl-3 PDZ / Δ G Dvl-3 PDZ / Δ H Dvl-3 PDZ: ITC; for Kd: by ITC, one-site binding model, 25 °C, read-out: K D Dvl-3 PDZ
T2 construct: spectra of Dvl-3 PDZ in the absence and presence of the compound; His-tag (cleaved yes); made in house
T2 sequence (Q92997 243-336): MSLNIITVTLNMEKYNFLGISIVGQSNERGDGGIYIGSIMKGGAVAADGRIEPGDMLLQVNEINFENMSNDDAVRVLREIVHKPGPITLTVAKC
Method: as §5

[3] = system: canonical Wnt signalling (β-catenin/TCF-dependent GFP) in HEK293 reporter cell line; assay: TOP-GFP reporter assay (Wnt3a-induced); format: cell-based; settings: Homo sapiens, 24 h, read-out: IC 50 Wnt3a-induced Wnt activation (TOP-GFP)
From the text: Taking advantage of a lentivirus that encodes GFP in a β -catenin/TCF-dependent fashion (TOP-GFP, SABiosciences), a stable HEK293 reporter cell line was established to evaluate the inhibitory effect of compounds 18, 20, and 21 on canonical Wnt signalling activity. TOP-GFP expression in this cell line was induced by the ligand Wnt3a, which directly activates the Frizzled–Dishevelled complex and protects β -catenin from degradation by the destruction complex (Fig. 2a).
The lentivirus particle (CCS-018L, SABiosciences) encoding GFP under the control of a basal promoter element (TATA box) joined to tandem repeats of a consensus TCF/LEF binding site was transfected into HEK293 cells. Stable cells were selected by puromycin (2 µgmL^-1 ) treatment. Wnt signalling activity indicated by GFP intensity was measured by flow cytometry after 24 h incubation with recombinant mouse Wnt3a (100 ng mL ^-1 ) or GSK3 inhibitor CHIR99021 (3 µM ) in the presence of Dvl inhibitors.

[4] = system: SW480 cells; assay: Trans-well migration assay; format: cell-based; settings: 24 h, 50–100 µM
Method: (§1) Canonical Wnt signalling contributes to cancer progression by inducing high motility and invasion of cancer cells while retaining the self-renewal property of cancer-initiating cells (Fritzmann et al., 2009; Sack et al., 2011; Vermeulen et al., 2010; Malanchi et al., 2008). […] Compounds 18 and 20 prevented increased cell migration and sphere formation.
Cell motility was assessed using 24-well trans-well assay (pore diameter: 8 µm , Corning). SW480WL cells were seeded in the upper chamber in serum-free DMEM with 0.1 % BSA; 20 % serum was supplemented to medium in the lower chamber. After incubation with Wnt3a in the presence of Dvl inhibitors for 24 h, non-migrant cells were scraped off using a cotton swab; the migrated cells on the filters were stained with DAPI, photographed, and counted.

[5] = system: SW480 cells; assay: Colon sphere culture (sphere formation); format: cell-based; settings: serum-free non-adherent culture, 10 d; 25–50 µM
Method: as §1
SW480WL cells were trypsinized into single cells, seeded on 24-well cell culture plates, pre-coated with 250 µL poly-HEMA (12 mg mL ^-1 in 95 % ethanol, Sigma) per well, and incubated with Wnt3a in the presence of Dvl inhibitors in the sphere culture medium (F12 : DMEM 1:1 , 1 × B-27 supplement, 20 ng mL ^-1 EGF, 20 ng mL ^-1 FGF, 0.5 % methylcellulose) for 10 d. Numbers of spheres were then counted under the microscope.

[6] = system: Wnt target genes (Axin2, LEF1, Bmp2) in HeLa cells; assay: qRT-PCR of Wnt target genes; format: cell-based; settings: HeLa cells treated with Wnt3a, 24 h; 150 µM
From the text: (§2) Increased β -catenin protein level is a hallmark of active Wnt signalling (Kishida et al., 1999). Once β -catenin is accumulated in the cytoplasm, it can translocate into the nucleus and activate the transcription of Wnt target genes by interacting with transcription factors of the TCF/LEF family (Fig. 2a) (Behrens et al., 1996). […] Increased mRNA levels of the Wnt target genes Axin2, LEF1, and Bmp2 (Riese et al., 1997; Jho et al., 2002; Lewis et al., 2010) were induced by Wnt3a treatment, as measured by qRT-PCR, and these increases were reduced by compounds 18, 20, and 21 (Fig. 2f).
To measure the Wnt target accumulation at mRNA level, HeLa cells were treated with Wnt3a in the presence of Dvl inhibitors for 24 h. mRNA was extracted according to the standard TRIzol® protocol (Invitrogen) and reverse-transcribed using random primers (Invitrogen) and M-MLV reverse transcriptase (Promega). The qRT-PCR was performed in a iQ5 multi-colour real-time PCR detection system (Bio-Rad) using SYBR® Green (Thermo Scientific) and gene-specific primer pairs of Bmp2, Axin2, LEF1, and β -actin (endogenous control).

[7] = system: β-catenin protein level in HeLa cells; assay: Western blotting of β-catenin levels; format: cell-based; settings: HeLa cells treated with Wnt3a, 24 h; 150 µM
From the text: as §2
To assess the β -catenin accumulation in HeLa cells, cells were treated with Wnt3a in the presence of Dvl inhibitors for 24 h and lysed in RIPA buffer (50 mM Tris, pH 8.0, 1 % NP-40, 0.5 % deoxycholate, 0.1 % SDS, 150 mM NaCl). Equal amounts of protein were loaded on a SDS-PAGE. Separated proteins were blotted onto PVDF membranes (polyvinylidene fluoride) for immunoblot analysis using anti- β -catenin antibody (610154, BD). HRP-conjugated anti-mouse antibody (715-035-150, Jackson ImmunoResearch Laboratories) was used for secondary detection with Western lightning chemiluminescence reagent plus (PerkinElmer) and Vilber Lourmat imaging system SL-3.

[8] = system: Oct4; assay: Oct-luciferase reporter assay; format: cell-based; settings: stimulated by overexpression of Oct4
Method: (§3) To further evaluate the specificity of our Dvl inhibitors, the conventional TOPflash (Molenaar et al., 1996) and other luciferase reporter assays were performed.
(§4) Plasmids encoding a firefly luciferase reporter gene under the control of different responsive elements were transfected into HeLa cells with a pRL-SV40 normalization reporter plasmid using the Lipofectamine 2000 (Invitrogen). After desired treatment, cells were harvested in the passive lysis buffer (Promega), and 15 µL cell lysate was transferred to 96-well LumiNunc plates (Thermo Scientific). Firefly luciferase and Renilla luciferase were detected with the D-luciferin buffer (75 mM HEPES, 4 mM MgSO 4 , 20 mM DTT, 100 µM EDTA, 0.5 mM ATP, 135 µM Coenzyme A, and 100 µM D-Luciferin sodium salt; pH 8.0) and the coelenterazine buffer (15 mM Na4PPi, 7.5 mM NaAc, 10 mM CDTA, 400 mM Na 2 SO 4 , 25 µM APMBT, and 1.1 µM coelenterazine; pH 5.0), respectively, using the CentroXS LB960 lumiometer (Berthold Technologies).

[9] = system: NF-κB signalling; assay: NF-κB-luciferase reporter assay; format: cell-based; settings: stimulated by recombinant TNFα
Method: as §3, §4

[10] = system: Wnt signalling (TOP-luciferase) in HeLa cells; assay: TOPflash luciferase reporter assay; format: cell-based
Method: as §3, §4

[11] = system: Notch signalling; assay: Notch-luciferase reporter assay; format: cell-based; settings: stimulated by overexpression of Notch intracellular domain
Method: as §3, §4

[12] = target: Dvl PDZ; settings: internal Frizzled sequence; ref Wong et al., 2003; Chandanamali et al., 2009; read-out: K D Dvl PDZ domains; cited from earlier work

| T Δ S Dvl-1 PDZ [1] [kcal mol ^-1] | Δ G Dvl-1 PDZ [1] [kcal mol ^-1] | Δ H Dvl-1 PDZ [1] [kcal mol ^-1] | n (stoichiometry) Dvl-1 PDZ ([1]; ITC one-site fit) | T Δ S Dvl-3 PDZ [2] [kcal mol ^-1] | Δ G Dvl-3 PDZ [2] [kcal mol ^-1] | Δ H Dvl-3 PDZ [2] [kcal mol ^-1] | n (stoichiometry) Dvl-3 PDZ ([2]; ITC one-site fit) | Kd [2] [µM] | Compound | IC50 [3] [µM] | migration of SW480 cells enhanced by Wnt3a [4] | sphere formation of SW480 cells enhanced by Wnt3a [5] | transcription of Wnt target genes (Axin2, LEF1, Bmp2) [6] | accumulation of β-catenin [7] | effect on Oct-luciferase [8] | effect on NF-κB-luciferase [9] | effect on Chir99021-induced Wnt activation (TOPflash) [10] | effect on TOP-luciferase signals stimulated by Wnt3a [10] | effect on Notch-luciferase [11] | Kd [12] [µM] |
| --- | --- | --- | --- | --- | --- | --- | --- | --- | --- | --- | --- | --- | --- | --- | --- | --- | --- | --- | --- | --- |
| -4.7 | -7.5 | -12.2 | 1.12 | -1.2 | -6.7 | -8.0 | 1.14 | 9.4 ± 0.6 | Cc1ccc(NS(=O)(=O)c2ccc(CNC(=O)c3n[nH]c4ccccc34)c(Cl)c2)c(C(=O)O)c1 [Compound 18] | 50 to 75 | reduced the migration; also recorded: prevented | reduced sphere formation; also recorded: prevented | reduced the transcription | inhibited accumulation |  |  |  |  |  |  |
| -2.2 | -7.2 | -9.4 |  | -3.6 | -6.8 | -10.4 |  | 9.8 ± 0.3 | Cc1ccc(NS(=O)(=O)c2ccc(CNC(=O)c3cc(Br)c[nH]3)c(Cl)c2)c(C(=O)O)c1 [Compound 20] | 50 to 75 | reduced the migration; also recorded: prevented | reduced sphere formation; also recorded: prevented | reduced the transcription | inhibited accumulation | no or a mild effect; also recorded: no significant inhibitory effects | no or a mild effect; also recorded: no significant inhibitory effects | no or a mild effect | specifically inhibited | no or a mild effect; also recorded: no significant inhibitory effects |  |
| -1.5 | -7.0 | -8.5 |  | 0.7 | -6.8 | -5.9 |  | 12.5 ± 0.5 | Cc1ccc(NS(=O)(=O)c2ccc(CNC(=O)c3cc(Cl)c[nH]3)c(Cl)c2)c(C(=O)O)c1 [Compound 21] | 50 to 75 |  |  | reduced the transcription | inhibited accumulation |  |  |  |  |  |  |
|  |  |  |  |  |  |  |  |  | Frizzled peptide 525(GKTLQSWRRFYH)536: Frizzled peptide with internal sequence KTXXXW recognized by Dvl PDZ domains |  |  |  |  |  |  |  |  |  |  | ~10 |
